From US5652124A (priority 1989, dated 1997)
Read-outs that look alike come from different tables or passages of the source. One block for each molecule: values may come before it.

How the values were obtained:
[1] = cited from earlier work
[2] = Improvement of water-solubility: standing of saccharide-transfer reaction solution at 4° C.; assay type: physicochemical; conditions: 4° C. for 2 days
[3] = test system: α-glucosidase (EC 3.2.1.20) derived from pig liver; assay: Stability against hydrolysis by α-glucosidase; assay type: in vitro ADME
Source text: Acid hydrolysis of the α-glucosyl hesperidin led to the formation of 1 mole of rhamnose and 2 moles of D-glucose per 1 mole hesperidin, while an α-glucosidase, obtained by the extraction from pig liver and partial purification, hydrolyzed α-glucosyl hesperidin into hesperidin and D-glucose.

dd mice = assay: Acute toxicity test; assay type: in vivo; conditions: oral, 7 week-old dd mice
Source text: As the result, no mouse died when administered with up to […] of the specimen, and higher dose was difficult.

Molecule: COc1ccc([C@@H]2CC(=O)c3c(O)cc(O[C@@H]4O[C@H](CO[C@@H]5O[C@@H](C)[C@H](O)[C@@H](O)[C@H]5O)[C@@H](O)[C@H](O)[C@H]4O)cc3O2)cc1O [hesperidin]
- solubility in water ([1]; ambient temperature): about 0.002 w/v %
- solubility in water (weight per volume of water) ([1]; ambient temperature): about 1 g in 50 liters of water
- solubility in water (in words) [1]: hardly soluble
- appearance of solution after standing [2]: white turbidity

Molecule: COc1ccc(C2CC(=O)c3c(O)cc(O[C@@H]4O[C@H](CO[C@@H]5O[C@@H](C)[C@H](O)[C@@H](O)[C@H]5O)[C@@H](O[C@H]5O[C@H](CO)[C@@H](O)[C@H](O)[C@H]5O)[C@H](O)[C@H]4O)cc3O2)cc1O (stereo partly drawn) [α-glucosyl hesperidin]
- hydrolysis by α-glucosidase into hesperidin and D-glucose ([3]; α-glucosidase from pig liver): hydrolyzed

Molecule: COc1ccc(C2CC(=O)c3c(O)cc(O[C@@H]4O[C@H](CO[C@@H]5O[C@@H](C)[C@H](O)[C@@H](O)[C@H]5O)[C@@H](O[C@H]5O[C@H](CO)[C@@H](O)[C@H](O)[C@H]5O)[C@H](O)[C@H]4O)cc3O2)cc1O (stereo partly drawn) [α-glycosyl hesperidin specimen [II]]
- toxicity (conclusion in words) (dd mice): extremely low

- hydrolysis by α-glucosidase into hesperidin and D-glucose [3]: hydrolyzable
Molecule: α-glycosyl hesperidin
